Experimental data reported in BigSolDB 2.1.

C=C1CCN([C@H](C)[C@](O)(Cn2cncn2)c2ccc(F)cc2F)CC1
solubility (mole fraction)
Settings | 288.15 K | 293.15 K | 298.15 K | 303.15 K | 308.15 K
in DMF | 0.281 | 0.298 | 0.316 | 0.334 | 0.353
in THF | 0.321 | 0.335 | 0.351 | 0.367 | 0.382
in acetone | 0.243 | 0.261 | 0.28 | 0.301 | 0.321
in acetonitrile | 0.0874 | 0.109 | 0.136 | 0.168 | 0.204
in dichloromethane | 0.321 | 0.34 | 0.358 | 0.379 | 0.4
in ethanol | 0.122 | 0.144 | 0.172 | 0.203 | 0.242
in ethyl acetate | 0.231 | 0.251 | 0.272 | 0.297 | 0.321
in isopropanol | 0.0849 | 0.105 | 0.125 | 0.152 | 0.184
in methanol | 0.176 | 0.195 | 0.214 | 0.236 | 0.259
in n-butanol | 0.113 | 0.135 | 0.159 | 0.185 | 0.218
in n-propanol | 0.12 | 0.142 | 0.164 | 0.191 | 0.222
in propylene glycol | 0.0278 | 0.031 | 0.0343 | 0.0384 | 0.0424
in transcutol | 0.218 | 0.233 | 0.247 | 0.262 | 0.276
in water | 1.08e-06 | 1.4e-06 | 1.77e-06 | 2.29e-06 | 2.91e-06

Settings | solubility (mole fraction)
in PEG-400, 288.15 K | 0.171
in PEG-400, 293.15 K | 0.182
in PEG-400, 298.15 K | 0.194
in PEG-400, 303.15 K | 0.206
in PEG-400, 308.15 K | 0.219
